Assay results from the supplement of paper PMC10307832.

Tests used:
Experiment in all cases: relative viability (nuclei count vs DMSO), 5 days (fraction); higher = more cells survive
QS11 + Pemetrexed = compound: C1CC2=C(C1)C=C(C=C2)OC3=NC(=C4C(=N3)N(C=N4)CC5=CC=C(C=C5)C6=CC=CC=C6)N[C@@H](CC7=CC=CC=C7)CO [QS11] + Nc1nc2[nH]cc(CCc3ccc(C(=O)N[C@@H](CCC(=O)O)C(=O)O)cc3)c2c(=O)[nH]1 [Pemetrexed] (partner 0.2 µM)
Outline: (§1)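 Cells from lung cancer lines were seeded into 1536-well plates and, one day later, dosed by pin tool. Treatments were either a single drug or a fixed dose of an anchor drug with five library-drug doses (not always all listed) in √10 steps. After 5 days, nuclei were stained in a one-step fixation (final 0.05% Triton X-100, 1% formaldehyde, 1 ug/ml Hoechst) and counted on 4× images, and relative viability is the treated-to-vehicle nuclei ratio, as the median of duplicate plates.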

AZ628 + AZD7762 = compound: CC1=C(C=C(C=C1)NC(=O)C2=CC(=CC=C2)C(C)(C)C#N)NC3=CC4=C(C=C3)N=CN(C4=O)C [AZ628] + NC(=O)Nc1cc(-c2cccc(F)c2)sc1C(=O)N[C@H]1CCCNC1 [AZD7762] (partner 0.2 µM)
Outline: as §1

Darinaparsin + Foretinib = compound: C[As](C)SC[C@H](NC(=O)CC[C@H](N)C(=O)O)C(=O)NCC(=O)O [Darinaparsin] + COc1cc2c(Oc3ccc(NC(=O)C4(C(=O)Nc5ccc(F)cc5)CC4)cc3F)ccnc2cc1OCCCN1CCOCC1 [Foretinib] (partner 0.25 µM)
Outline: as §1

Darinaparsin + Dasatinib = compound: C[As](C)SC[C@H](NC(=O)CC[C@H](N)C(=O)O)C(=O)NCC(=O)O [Darinaparsin] + Cc1nc(Nc2ncc(C(=O)Nc3c(C)cccc3Cl)s2)cc(N2CCN(CCO)CC2)n1 [Dasatinib] (partner 0.075 µM)
Outline: as §1

Cell Line | relative viability (QS11 + Pemetrexed; first compound 0.253 µM) | relative viability (QS11 + Pemetrexed; first compound 0.8 µM) | relative viability (QS11 + Pemetrexed; first compound 2.53 µM) | relative viability (QS11 + Pemetrexed; first compound 8 µM) | relative viability (AZ628 + AZD7762; first compound 0.08 µM) | relative viability (AZ628 + AZD7762; first compound 0.253 µM) | relative viability (AZ628 + AZD7762; first compound 0.8 µM) | relative viability (AZ628 + AZD7762; first compound 2.53 µM) | relative viability (AZ628 + AZD7762; first compound 8 µM) | relative viability (Darinaparsin + Foretinib; first compound 0.08 µM) | relative viability (Darinaparsin + Foretinib; first compound 0.8 µM) | relative viability (Darinaparsin + Foretinib; first compound 2.53 µM) | relative viability (Darinaparsin + Foretinib; first compound 8 µM) | relative viability (Darinaparsin + Dasatinib; first compound 0.08 µM) | relative viability (Darinaparsin + Dasatinib; first compound 0.8 µM) | relative viability (Darinaparsin + Dasatinib; first compound 2.53 µM) | relative viability (Darinaparsin + Dasatinib; first compound 8 µM) | relative viability (QS11 + Pemetrexed; first compound 0.08 µM)
PC-14 | 0.145 | 0.14 | 0.178 | 0.155 | 0.48 | 0.324 | 0.338 | 0.316 | 0.296 | 1.18 | 0.981 | 0.927 | 1.14 | 0.189 | 0.24 | 0.245 | 0.211 | 
EPLC-272H | 0.366 | 0.344 | 0.313 | 0.315 | 0.34 | 0.168 | 0.165 | 0.22 | 0.236 |  | 0.658 | 0.619 | 0.814 |  | 0.275 | 0.223 | 0.371 | 0.306
LC-2-ad | 0.27 | 0.27 | 0.294 | 0.26 | 0.909 | 0.85 | 1.02 | 0.922 | 0.759 | 0.949 | 1.02 | 0.987 | 0.836 | 0.683 | 0.628 | 0.454 | 0.466 | 0.273
HOP-62 | 0.371 | 0.276 | 0.23 | 0.283 | 0.831 | 0.555 | 0.613 | 0.479 | 0.297 | 1.2 | 1.16 | 0.969 | 1.13 | 0.708 | 0.786 | 0.434 | 0.693 | 0.414
A-427 | 0.985 |  | 0.989 | 0.979 | 0.591 | 0.569 | 0.6 | 0.524 | 0.352 | 1.35 | 1.15 | 0.989 | 1.32 | 0.843 | 0.809 | 0.707 | 0.733 | 0.967
HCC-827 | 0.274 | 0.258 | 0.257 | 0.35 | 0.258 | 0.177 | 0.17 | 0.217 | 0.166 | 1.16 | 1.09 | 1.02 | 1.06 | 0.268 | 0.397 | 0.243 | 0.309 | 0.262
EKVX | 0.412 | 0.412 | 0.356 | 0.345 | 0.71 | 0.755 | 0.558 | 0.704 | 0.64 | 0.835 | 0.445 | 0.743 | 0.786 | 0.504 | 0.488 | 0.53 | 0.512 | 0.385
SW 900 | 0.456 | 0.465 | 0.503 | 0.514 | 0.552 | 0.552 | 0.494 | 0.634 | 0.378 | 0.919 | 0.778 | 0.918 | 1.06 | 0.512 | 0.454 | 0.654 | 0.514 | 0.384
NCI-H1975 | 0.279 | 0.332 | 0.326 | 0.307 | 0.78 | 0.624 | 0.711 | 0.779 | 0.623 | 1.13 | 0.994 | 0.975 | 1.12 | 0.42 | 0.404 | 0.388 | 0.386 | 0.302
NCI-H1944 | 0.632 |  | 0.491 | 0.565 | 0.5 | 0.488 | 0.454 | 0.414 | 0.359 | 0.917 | 0.898 | 0.731 | 0.995 | 0.203 | 0.2 | 0.208 | 0.192 | 0.535
NCI-H1755 | 0.443 | 0.39 | 0.446 | 0.355 | 0.466 | 0.385 | 0.392 | 0.429 | 0.356 | 0.994 | 0.931 | 0.868 | 1.08 | 0.438 | 0.448 | 0.346 | 0.468 | 0.554
NCI-H650 | 0.819 | 0.83 | 0.841 | 0.839 | 1.14 | 1.24 | 1.37 | 1.14 | 0.691 | 1.09 | 1.05 | 1.13 | 1.03 | 0.529 | 0.515 | 0.42 | 0.486 | 0.834
NCI-H322M | 0.59 | 0.66 | 0.822 | 0.735 | 0.529 | 0.526 | 0.455 | 0.467 | 0.524 | 1.04 | 1.04 | 0.826 | 1.02 | 0.269 | 0.233 | 0.251 | 0.257 | 0.556
NCI-H1993 | 0.503 | 0.618 | 0.573 | 0.618 | 0.855 | 0.546 | 0.53 | 0.556 | 0.571 | 0.738 | 0.761 | 0.788 | 0.921 | 0.68 | 0.532 | 0.535 | 0.575 | 0.649
NCI-H1355 | 0.993 | 0.782 | 1.08 | 1.02 | 0.798 | 0.754 | 0.737 | 0.638 | 0.541 | 1.09 | 0.91 | 0.854 | 0.768 | 0.717 | 0.69 | 0.596 | 0.689 | 1.03
PC-3 [JPC-3] | 0.951 | 1.08 | 0.935 | 1.17 | 0.929 | 0.754 | 0.808 | 0.83 | 0.727 | 1.13 | 1.03 | 1.1 | 1.13 | 1.11 | 1 | 0.826 | 1.01 | 
NCI-H1651 | 0.616 | 0.582 | 0.598 | 0.584 | 0.466 | 0.393 | 0.44 | 0.448 | 0.318 | 0.951 | 0.885 | 0.851 | 0.777 | 0.51 | 0.476 | 0.365 | 0.416 | 0.575
LK-2 | 0.318 | 0.267 | 0.27 | 0.284 | 0.526 | 0.354 | 0.273 | 0.357 | 0.259 | 1.98 |  | 0.769 | 1.83 | 0.201 |  | 0.301 | 0.274 | 0.241
